Results reported in US6359138B1, “4-hydroxy-piperidine derivatives” (Hoffmann-La Roche Inc., priority 1996, dated 2002).
Where a name gives a salt, the structure may show the parent alone. Marks after values point to notes of the source that are not given here.

How the values were obtained:
[1] = target: T1, NMDA receptor (3H-Ro 25-6981 binding, rat brain membranes) (Rattus norvegicus, UniProt P35439+Q00960); assay: 3H-Ro 25-6981 binding; conditions: 5 nM 3H-Ro 25-6981, 2 hours at 4° C.
T1 construct: Membranes were prepared by homogenization of the whole brain minus cerebellum and medulla oblongata; from tissue; host or cells: rat whole brain minus cerebellum and medulla oblongata, membranes
T1 sequence (Q00960 27-1482, other chains not shown): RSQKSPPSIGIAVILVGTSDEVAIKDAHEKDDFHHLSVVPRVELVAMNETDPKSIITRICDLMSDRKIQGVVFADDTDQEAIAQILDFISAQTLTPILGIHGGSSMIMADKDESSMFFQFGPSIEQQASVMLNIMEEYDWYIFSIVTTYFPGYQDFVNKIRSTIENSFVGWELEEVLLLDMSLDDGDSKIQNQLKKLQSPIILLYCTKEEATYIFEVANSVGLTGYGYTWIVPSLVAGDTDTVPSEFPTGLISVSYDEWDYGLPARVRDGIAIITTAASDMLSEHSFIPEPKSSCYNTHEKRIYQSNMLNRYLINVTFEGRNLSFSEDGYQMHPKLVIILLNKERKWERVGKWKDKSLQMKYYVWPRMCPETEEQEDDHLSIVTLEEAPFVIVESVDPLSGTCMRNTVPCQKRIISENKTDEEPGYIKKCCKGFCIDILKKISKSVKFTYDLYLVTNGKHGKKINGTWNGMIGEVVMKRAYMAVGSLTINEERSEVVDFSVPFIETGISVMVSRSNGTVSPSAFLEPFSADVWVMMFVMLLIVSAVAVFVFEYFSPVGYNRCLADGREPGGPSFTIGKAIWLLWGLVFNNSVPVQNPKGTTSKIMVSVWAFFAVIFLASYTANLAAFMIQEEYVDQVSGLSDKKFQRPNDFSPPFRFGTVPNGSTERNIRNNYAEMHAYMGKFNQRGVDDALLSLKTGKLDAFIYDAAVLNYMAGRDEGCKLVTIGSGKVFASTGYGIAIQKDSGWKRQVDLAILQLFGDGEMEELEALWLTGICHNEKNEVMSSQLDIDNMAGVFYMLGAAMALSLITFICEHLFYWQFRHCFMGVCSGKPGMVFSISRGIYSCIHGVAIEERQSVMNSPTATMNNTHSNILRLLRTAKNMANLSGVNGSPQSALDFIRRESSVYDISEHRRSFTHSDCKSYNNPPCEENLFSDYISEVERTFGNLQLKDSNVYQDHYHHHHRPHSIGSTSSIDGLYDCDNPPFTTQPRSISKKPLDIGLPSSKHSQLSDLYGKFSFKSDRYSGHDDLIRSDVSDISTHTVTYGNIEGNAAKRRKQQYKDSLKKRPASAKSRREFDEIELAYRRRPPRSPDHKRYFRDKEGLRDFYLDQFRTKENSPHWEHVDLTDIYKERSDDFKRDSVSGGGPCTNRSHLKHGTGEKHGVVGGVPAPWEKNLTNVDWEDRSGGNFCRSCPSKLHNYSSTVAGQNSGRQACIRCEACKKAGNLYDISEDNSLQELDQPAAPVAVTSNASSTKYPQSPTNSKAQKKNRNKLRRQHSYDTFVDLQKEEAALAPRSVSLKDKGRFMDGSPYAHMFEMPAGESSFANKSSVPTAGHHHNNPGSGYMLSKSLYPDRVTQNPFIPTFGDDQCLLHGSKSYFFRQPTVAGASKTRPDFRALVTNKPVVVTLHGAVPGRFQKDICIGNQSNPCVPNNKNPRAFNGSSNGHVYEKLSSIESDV
Protocol: 3H-Ro 25-6981 Binding (Ro 25-6981 is [R-(R*,S*)]-a-(4-Hydroxy-phenyl)-b-methyl-4-(phenyl-methyl)-1-piperidine Propanol)
Male Füillinsdorf albino rats weighing between 150-200 g were used. Membranes were prepared by homogenization of the whole brain minus cerebellum and medulla oblongata with a Polytron (10.000 rpm, 30 seconds), in 25 volumes of a cold Tris-HCl 50 mM, EDTA 10 mM, pH 7.1 buffer. The homogenate was centrifuged at 48.000 g for 10 minutes at 4° C. The pellet was resuspended using the Polytron in the same volume of buffer and the homogenate was incubated at 37° C. for 10 minutes. After centrifugation the pellet was homogenized in the same buffer and frozen at −80° C. for at least 16 hours but not more than 10 days. For the binding assay the homogenate was thawed at 37° C., centrifuged and the pellet was washed three times as above in a Tris-HCl 5 mM, pH 7.4 cold buffer. The final pellet was resuspended in the same buffer and used at a final concentration of 200 μg of protein/ml. 3H-Ro 25-6981 binding experiments were performed using a Tris-HCl 50 mM, pH 7.4 buffer. For displacement experiments 5 nM of 3H-Ro 25-6981 were used and non specific binding was measured using 10 μM of tetrahydroisoquinoline and usually it accounts for 10% of the total. The incubation time was 2 hours at 4° C. and the assay was stopped by filtration on Whatmann GF/B glass fiber filters (Unifilter-96, Packard, Zütrich, Switzerland). The filters were washed 5 times with cold buffer. The radioactivity on the filter was counted on a Packard Top-count microplate scintillation counter after addition of […] of microscint 40 (Canberra Packard S. A., Zürich, Switzerland).
The effects of compounds were measured using a minimum of 8 concentrations and repeated at least once. The pooled normalized values were analyzed using a non-linear regression calculation program which provide IC50 with their relative upper and lower 95% confidence limits (RS1, BBN, USA).

[2] = target: 3H-Prazosine binding (rat brain membranes); assay: 3H-Prazosine binding; conditions: 0.2 nM 3H-Prazosine, 30 minutes at room temperature
Protocol: Male Füllinsdorf albino rats weighing between 150-200 g were used. Membranes were prepared by homogenization of the whole brain minus cerebellum and medulla oblongata with a Plytron (10.000 rpm, 30 seconds), in 25 volumes of a cold Tris-HCl 50 mM, EDTA 10 mM, pH 7.1 buffer. The homogenate was centrifuged at 48.000 g for 10 minutes at 4° C. The pellet was resuspended using the Polytron in the same volume of buffer and the homogenate was incubated at 37° C. for 10 minutes. After centrifugation the pellet was homogenized in the same buffer and frozen at −80° C. for at least 16 hours but not more than 10 days. For the binding assay the homogenate was thawed at 37° C., centrifuged and the pellet was washed three times as above in a Tris-HCl 5 mM, pH 7.4 cold buffer. The final pellet was resuspended in the same buffer and used at a final concentration of 200 μg of protein/ml.
3H-Prazosine binding experiments were performed using a Tris-HCl 50 mM, pH 7.4 buffer. For displacement experiments 0.2 nM of 3H-Prazosine were used and non specific binding was measured using 100 μM of Chlorpromazine. […] The radioactivity on the filter was counted on a Packard Top-count microplate scintillation counter after addition of […] of microscint 40 (Canberra Packard S. A., Zürich, Switzerland). The effects of compounds were measured using a minimum of 8 concentrations and repeated at least once. […]

[3] = target: T2, NR1C + NR2A NMDA receptor (Rattus norvegicus, UniProt P35439+Q00959); assay: Electrophysiology on recombinant NMDA receptors, NR1C + NR2A in Xenopus oocytes; format: cell-based; conditions: 10 μM compound; Xenopus laevis oocytes, voltage clamp −80 mV, 2.7 μM Glu plus 0.9 μM Gly; mean of 4-6 oocytes
T2 construct: expressed in transfected cells; host or cells: Xenopus laevis oocytes (nuclear injection of pBC/CMV plasmids)
T2 sequence (Q00959 23-1464, other chains not shown): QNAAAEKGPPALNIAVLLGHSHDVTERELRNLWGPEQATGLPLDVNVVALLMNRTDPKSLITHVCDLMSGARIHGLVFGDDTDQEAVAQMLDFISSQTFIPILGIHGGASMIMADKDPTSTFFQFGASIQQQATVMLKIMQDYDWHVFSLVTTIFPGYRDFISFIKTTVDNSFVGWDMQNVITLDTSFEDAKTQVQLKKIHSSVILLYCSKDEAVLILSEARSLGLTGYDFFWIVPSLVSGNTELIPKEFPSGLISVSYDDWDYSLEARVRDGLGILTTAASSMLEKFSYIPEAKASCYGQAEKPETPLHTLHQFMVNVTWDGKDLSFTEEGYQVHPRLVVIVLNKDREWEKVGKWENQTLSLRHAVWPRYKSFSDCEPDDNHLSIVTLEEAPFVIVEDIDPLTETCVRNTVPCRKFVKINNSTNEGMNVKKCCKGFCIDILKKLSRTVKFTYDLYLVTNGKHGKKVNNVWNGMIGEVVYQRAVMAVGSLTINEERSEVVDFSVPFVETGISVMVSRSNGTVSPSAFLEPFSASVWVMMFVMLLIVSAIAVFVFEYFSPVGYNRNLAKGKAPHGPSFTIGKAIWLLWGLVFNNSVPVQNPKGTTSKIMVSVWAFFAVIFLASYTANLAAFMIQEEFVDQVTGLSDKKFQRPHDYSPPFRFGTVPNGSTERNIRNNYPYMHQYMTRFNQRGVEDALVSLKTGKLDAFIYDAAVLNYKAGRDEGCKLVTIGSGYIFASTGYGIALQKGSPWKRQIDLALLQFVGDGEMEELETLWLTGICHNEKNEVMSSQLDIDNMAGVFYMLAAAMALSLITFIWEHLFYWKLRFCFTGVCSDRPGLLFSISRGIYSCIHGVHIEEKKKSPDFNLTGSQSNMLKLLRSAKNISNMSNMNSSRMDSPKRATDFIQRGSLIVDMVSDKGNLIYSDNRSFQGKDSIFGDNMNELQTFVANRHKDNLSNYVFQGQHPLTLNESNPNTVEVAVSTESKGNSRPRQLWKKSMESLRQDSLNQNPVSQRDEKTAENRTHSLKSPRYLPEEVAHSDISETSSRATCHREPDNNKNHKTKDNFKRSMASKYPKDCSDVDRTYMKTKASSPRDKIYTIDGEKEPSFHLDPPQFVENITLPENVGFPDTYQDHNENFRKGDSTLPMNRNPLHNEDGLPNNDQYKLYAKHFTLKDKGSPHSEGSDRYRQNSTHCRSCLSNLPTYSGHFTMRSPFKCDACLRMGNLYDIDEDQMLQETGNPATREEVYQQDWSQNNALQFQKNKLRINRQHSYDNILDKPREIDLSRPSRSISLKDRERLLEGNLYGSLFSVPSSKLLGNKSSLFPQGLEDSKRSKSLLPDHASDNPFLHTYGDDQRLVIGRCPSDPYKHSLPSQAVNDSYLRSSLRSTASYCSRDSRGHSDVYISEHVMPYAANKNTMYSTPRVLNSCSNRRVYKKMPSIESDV
Text: (§1) Electrophysiology on Recombinant NMDA Receptors
(§2) cDNA clones coding for the subunits NR1C and NR2A of the NMDA receptor (see Hollmann and Heinemann, 1994, Annu. Rev. Neurosci. 17:31 for nomenclature of NMDA receptor subunits) were isolated from a rat brain λgt11 cDNA library as published elsewhere (Sigel et al., 1994, J. Biol. Chem. 269:8204). The clone for the subunit NR2B of the rat brain NMDA receptor was obtained from S. Nakanishi (Kyoto, Japan). The cDNAs encoding rat NR1C, NR2A and NR2B were subcloned into the expression vector pBC/CMV (Bertocci et al., 1991, Proc. Natl. Acad. Sci. U.S.A. 88:1416), placing transcription of the cDNA under control of the human cytomegalovirus promoter. CsCl-purified expression plasmids were mixed in a 1:3 ratio of NR1C:NR2A or NR1C:NR2B in injection buffer (88 mM NaCl, 1 mM KCl, 15 mM HEPES, at pH 7.0). Oocytes of South African frogs (Xenopus laevis) were used for expressing either a combination of the NR1C and NR2A subunits or the NR1C and NR2B subunits. 12 to 120 pg of a 1:3 (NR1C:NR2B) mixture of the respective cDNA species were injected into the nucleus of every oocyte. On the following two days the ion current through the NMDA receptor channels was measured in voltage clamp experiments for the methods of cDNA expression in oocytes and voltage-clamping (see, e.g., Bertrand et al., 1991, Methods in Neurosciences 4:174). The membrane potential was clamped to −80 mV and the receptors were activated by applying a modified Ringer,s solution containing the NMDA-receptor agonists L-glutamate (Glu) and glycine (Gly). Different agonist concentrations were chosen for either subunit combination to account for the different agonist sensitivities of the two types of receptors (2.7 μM Glu plus 0.9 μM Gly for NR1C+NR2A and 1.3 μM Glu plus 0.07 μM Gly for NR1C+NR2B). The agonists were applied for 15 s intervals once every 2.5 min by rapid superfusion of the oocyte with agonist containing solution and the amplitude of the agonist-evoked current was measured immediately before the end of each application. After a series of initial control applications the antagonist to be tested was added to both, the basal Ringer,s and the agonist containing solution. The antagonist concentration applied to oocytes expressing the NR2A subunit was 10 μmol/l, whereas 0.1 μtmol/ were applied to the NR2B expressing oocytes. Four to six oocytes were tested for every compound and NMDA receptor subtype. Oocytes were exposed to the compounds for 5 to 30 min depending on the time needed for reaching an equilibrium block of the NMDA receptor current. For every oocyte the decrease of the current amplitude was expressed as a percentage of the control current measured before application of the compound. Figures in the table are arithmetic mean values of these percentage values.

[4] = target: T3, NR1C + NR2B NMDA receptor (Rattus norvegicus, UniProt P35439+Q00960); assay: Electrophysiology on recombinant NMDA receptors, NR1C + NR2B in Xenopus oocytes; format: cell-based; conditions: 0.1 μM compound; Xenopus laevis oocytes, voltage clamp −80 mV, 1.3 μM Glu plus 0.07 μM Gly; mean of 4-6 oocytes
T3 construct: expressed in transfected cells; host or cells: Xenopus laevis oocytes (nuclear injection of pBC/CMV plasmids)
T3 sequence (Q00960 27-1482, other chains not shown): as the sequence (Q00960 27-1482, other chains not shown) above
Text: as §1
as §2, with “Figures in the table are arithmetic mean values of these percentage values.” left out

Row | SMILES | melting point [°C] | Electrophysiology NR1C + NR2A % block by 10 μM [3] | further results
1 | Cc1ccc(CC2(O)CCN(C[C@H]3CCc4cc(O)ccc4[C@@H]3O)CC2)cc1 (racemic) [Example 27, (1RS, 2RS)-1-(1,6-Dihydroxy-1,2,3,4-tetrahydro-naphthalen-2-ylmethyl)-4-(4-methyl-benzyl)-piperidin-4-ol fumarate salt] |  |  | IC50 [1]: 26 nM; IC50 [2]: 6000 nM
2 | Cc1ccc(CC2(O)CCN(CC3Cc4ccc(O)cc4O3)CC2)cc1.Cl (racemic) | 203 to 205 |  | 
3 | Cc1ccc(CC2(O)CCN(C[C@@H]3Cc4cc(O)ccc4O3)CC2)cc1.Cl [Example 13, (S)-1-(5-Hydroxy-2,3-dihydro-benzofuran-2-ylmethyl)-4-(4-methyl-benzyl)-piperidin-4-ol hydrochloride] |  | 8% | Electrophysiology NR1C + NR2B % block by 0.1 μM [4]: 93%
4 | Cl.Oc1ccc2c(c1)C[C@@H](CN1CCC(O)(Cc3ccc(Cl)cc3)CC1)O2 [Example 14, (S)-1-(5-Hydroxy-2,3-dihydro-benzofuran-2-ylmethyl)-4-(4-chloro-benzyl)-piperidin-4-ol hydrochloride] |  | 9% | Electrophysiology NR1C + NR2B % block by 0.1 μM [4]: 90%
5 | CS(=O)(=O)Nc1ccc2c(c1)CC(CN1CCC(O)(Cc3ccc(Cl)cc3)CC1)O2 (racemic) [Example 22, Hydrochloride] |  |  | IC50 [1]: 40 nM
6 | CC(=O)Nc1ccc2c(c1)CCC(CN1CCC(O)(Cc3ccccc3)CC1)C2=O.Cl (racemic) | 123 to 126 |  | 
7 | Cc1ccc(CC2(O)CCN(CC3=Cc4ccc(O)cc4CC3)CC2)cc1 [Example 1, 1-(6-Hydroxy-3,4-dihydro-naphthalene-2-ylmethyl)-4-(4-methyl-benzyl)-piperidine-4-ol] |  | 65* % | IC50 [1]: 40 nM; Electrophysiology NR1C + NR2B % block by 0.1 μM [4]: 72%
8 | Cc1ccc(CC2(O)CCN(CC3Cc4cc(O)ccc4C3O)CC2)cc1 (stereo not drawn) [Example 16, (1RS,2RS) and (1RS, 2SR)-2-[4-Hydroxy-4-(4-methyl-benzyl)-piperidine-1-ylmethyl]-indan-1,5-diol Fumarate Salt] |  | 6% | 
9 | Oc1ccc2c(c1)CC[C@H](CN1CCC(O)(Cc3ccccc3)CC1)[C@H]2O (racemic) [Example 29, (1RS,2RS)-2-(4-benzyl-4-hydroxy-piperidin-1-yl-methyl)-6-hydroxy-1,2,3,4-tetrahydro-naphthalen-1-ol] | 94 to 98 |  | 
10 | CCc1ccc(CC2(O)CCN(CC3Cc4cc(O)ccc4O3)CC2)cc1.Cl (racemic) [Example 7, (RS)-4-(4-ethyl-benzyl)-1-(5-hydroxy-2,3-dihydro-benzofuran-2-ylmethyl)-piperidin-4-ol hydrochloride] |  | 12% | Electrophysiology NR1C + NR2B % block by 0.1 μM [4]: 89%

Now from value to compound, other results behind:

Row | melting point [°C] | SMILES | Electrophysiology NR1C + NR2A % block by 10 μM [3] | further results
11 | 214 | Cc1ccc(CC2(O)CCN(Cc3cc4ccc(O)cc4o3)CC2)cc1.Cl |  | 
12 | 90 to 94 | Cc1ccc(CC2(O)CCN(CC3Cc4cc(O)ccc4N3)CC2)cc1 (racemic) [Example 21, (RS)-2-[4-Hydroxy-4-(4-methyl-benzyl)-piperidin-1-ylmethyl]-2,3-dihydro-1H-indol-5-ol] |  | 
13 | 154 to 157 | Cc1ccc(CC2(O)CCN(CC3=Cc4ccc(O)cc4C3)CC2)cc1 [Example 20, 1-(6-Hydroxy-1H-inden-2-ylmethyl)-4-(4-methyl-benzyl)-piperidin-4-ol] |  | 
14 | 88 to 90 | Cc1ccc(CC2(O)CCN(CC3Cc4ccc(O)cc4C3)CC2)cc1.Cl (racemic) |  | 
